From patent US11234960B2, “Compositions and methods for improving mitochondrial function and treating neurodegenerative diseases and cognitive disorders” (Amazentis SA, priority 2010, dated 2022)

Tests used:
HFD-fed C57BL6/J mice [1] = experiment: Plasma biochemistry in HFD-fed mice; assay type: in vivo; settings: HFD-fed mice treated for 14 weeks; for plasma levels of triglycerides: fasted 12 h (FIG. 23A); for plasma levels of free fatty acids: fasted 12 h (FIG. 23B)
Procedure: In addition, plasma biochemistry was performed 14 weeks after the initiation of the treatment using a standard automated clinical chemistry analyzer (Dimension Xpand, SIEMENS). Animals were fasted for 12 h (from 8 pm to 8 am) before blood collection. Approximately 500 μL of blood was collected from vena cava in anesthetized animals under isofluorane anesthesia. Blood was collected in heparinized tubes and immediately placed on wet ice. Plasma was prepared by centrifugation (1500×g, 15 min, 4° C.). Plasma samples were then transferred in clean 1.5 mL microtubes and stored at −80° C. until biochemical measurements were performed on a standard automated clinical chemistry analyzer (Dimension Xpand, SIEMENS) using corresponding kits.

PC-12 cells = experiment: Neurite outgrowth in NGF-differentiated PC-12 cells; assay type: cell-based, rat; settings: 0.5 μM; for percent of cells showing significant outgrowth (>20 μm), increase vs differentiated cells: 72 h (FIG. 8); for number of processes, increase: 72 h, differentiated PC-12 cells (FIG. 9)
Procedure: The ellagitannins and their metabolites tested in the assays were synthesized or purchased from suppliers which included Funakoshi, Sigma, and Chemos. Stock solutions were aliquoted and stored at −20° C.
PC-12 cells (ATCC CRL-1721) were cultured at 37° C., 5% CO2 in poly L-lysine-coated culture flasks in complete culture medium (RPMI 1640+10% heat-inactivated horse serum+5% fetal bovine serum).
Cell differentiation was performed in culture flasks 24 h after plating, in complete medium supplemented with 100 ng/mL NGF (2.5 S NGF, Invitrogen). The NGF-supplemented medium was renewed every third day, and differentiation was induced over an 8-day period.
All compounds to be tested were prepared just before the experiment as a 50 mM stock solution in dimethylsulfoxide (DMSO). The final DMSO concentration was 0.1% in the medium of all experimental groups.
For neurite outgrowth measurements, differentiated cells were washed with phosphate-buffered saline (PBS), collected after detachment and replated at a density of 5,000 cells/well (biocoat imaging 96 well plate) in complete medium supplemented with 100 ng/mL NGF, with or without 10 μM SP600125 (negative control), 1 mM dbcAMP (positive control), or tested compound at 5×10^−7 M. In the undifferentiated control group, no NGF was added after replating.
After 72 h in culture, PC-12 cells were washed with PBS and fixed in 1% paraformaldehyde solution for 20 minutes. After 3 washes with PBS, immunofluorescence labeling was performed with Texas Red Maleimide probe, which reacts with thiol groups of cysteine residues of proteins, permitting the visualization of the entire cell morphology, including neurites.
Immunofluorescence analysis was performed in automated confocal microscopy. Images were acquired with a BD pathway 855 system, under X20 objective with 8×8 field montage. Neurite outgrowth was then measured from acquired images with the neurite module of Metamorph® software. Total and mean outgrowth, total and mean number of processes per cell, and total and percentage of cells with extensive outgrowth (defined as outgrowth longer than 20 μm) were analyzed.

HFD-fed C57BL6/J mice [2] = experiment: Indirect calorimetry (CLAMS) in HFD-fed mice; assay type: in vivo; settings: for respiratory exchange ratio (RER): HFD-fed mice (FIGS. 22A, 22B); for energy expenditure (oxygen consumption, VO2): HFD-fed mice, 8 weeks after initiation of treatment (FIGS. 20A, 20B)
Procedure: Mice in different treatment groups were administered (i) urolithin A mixed with food (food admix) to reach a dosing of 55 mg/kg body weight/day (mkd); (ii) ellagic acid mixed with food (food admix) to reach a dosing of 75 mkd; (iii) punicalagin (gavage) to reach a dosing of 90 mkd; or (iv) pomegranate extract (PE) (gavage) to reach a dosing of 140 mkd of total polyphenols. […] For animals treated by gavage, gavage was performed daily (7 days/week) between 8:00 and 10:00 a.m.; compounds were mixed with saline solution (0.9% NaCl) and provided at a final volume of 5 mL/kg of body weight.
In addition, however, basal energy expenditure of mice was measured by indirect calorimetry oxygen consumption, carbon dioxide production, and respiratory exchange ratio), 8 weeks after the initiation of treatment for the HFD-fed mice and 2 weeks after the initiation of treatment for standard show diet-fed mice, using the Comprehensive Laboratory Animal Monitoring System (CLAMS; Columbus Instruments, Columbus, Ohio, USA). Animals were first acclimatized for 22 h to CLAMS cages (room temperature 22° C.±1° C.) starting between 11 to 12 am. Then measurement was performed for at least 20 h in the same condition. Measurement included an entire dark cycle. Parameters measured during CLAMS were the following: (i) Oxygen consumption (VO2 in mL/kg/h): VO2 is directly correlated to energy expenditure; (ii) Carbon dioxide production (VCO2 in mL/kg/h); and (iii) Respiratory Exchange Ratio (RER): VCO2/VO2: RER is an indicator of the use of energy substrate.

[3] = system: C57BL6/J mice fed standard chow diet; experiment: Body composition (EchoMRI) in standard chow diet fed mice; assay type: in vivo; settings: 2 weeks of treatment, ellagic acid 75 mkd; for percentage of lean mass (EchoMRI): urolithin A 55 mkd food admix (FIG. 18A); for percentage of fat mass (EchoMRI): urolithin A 55 mkd food admix (FIG. 18B)
Description: Male C57BL6/J mice were purchased from Charles River Laboratory (L'Arbresle, France) at the age of 7 weeks and acclimatized to the animal facility for 2 weeks before initiation of experiments. Mice were housed in groups of 5 in standard housing conditions, with a 12 hr light-dark cycle and free access to food and water. Beginning at 9 weeks of age, mice were fed a high-fat diet (HFD) (60% kcal from fat; D12492; Research Diets Inc., New Brunswick, N.J., USA) for fourteen weeks. Body weight was monitored weekly.
Mice in different treatment groups were administered (i) urolithin A mixed with food (food admix) to reach a dosing of 55 mg/kg body weight/day (mkd); (ii) ellagic acid mixed with food (food admix) to reach a dosing of 75 mkd; (iii) punicalagin (gavage) to reach a dosing of 90 mkd; or (iv) pomegranate extract (PE) (gavage) to reach a dosing of 140 mkd of total polyphenols. A typical pomegranate extract used in these experiments had the following composition: polyphenols, 140 mkd; punicalagin, 13.1 mkd; and ellagic acid, 13.2 mkd. For animals treated by gavage, gavage was performed daily (7 days/week) between 8:00 and 10:00 a.m.; compounds were mixed with saline solution (0.9% NaCl) and provided at a final volume of 5 mL/kg of body weight. Mice in high-fat control groups were fed with the same diet as the experimental animals. Mice in corresponding different control groups were administered either high-fat diet alone or high-fat diet plus daily gavage with vehicle (saline). Another control group of mice were fed standard chow diet alone.
Body composition was monitored by EchoMRI (Echo Medical Systems, Houston, Tex., USA) 5 weeks after the initiation of the treatment for high-fat diet fed mice and 2 weeks after the initiation of the treatment for chow diet fed mice. Animals were placed individually into a plastic cylinder and then introduced into an EchoMRI system for about 2 min for body composition scanning (lean and fat mass).

[4] = system: AMP-activated protein kinase (AMPK); experiment: AMPK phosphorylation (Western blot) in C2C12 myotubes; assay type: cell-based; settings: 1 hr, 50 μM, relative to control treated cells (FIG. 5A)
Procedure: C2C12 myoblasts were differentiated to myotubes by serum deprivation for 4 days (Canto et al. (2009) Nature. 458:1056-60). Myotubes were incubated for 1 hr with resveratrol (RSV), which served as a positive control, or ellagic acid (EA) or urolithin A (UL) at a final concentration of 50 μM (all dissolved in DMSO, final concentration 0.1%). DMSO was used as a control (final concentration of DMSO: 0.1%). At the end of the treatment, cells were washed 3 times with PBS, and AMP-activated protein kinase (AMPK) was assessed by Western blot. Following compound treatment, C2C12 cells were lysed in buffer containing phosphatase inhibitors, and protein concentration was determined using a standard Bradford assay. The equivalent of 25 μg of protein was used for separation on a 10% SDS-PAGE gel and subsequently transferred by standard Western blotting procedures. Antibodies directed to AMPK (Cell Signaling) and phosphorylated AMPK (P-AMPK, Cell Signaling) were used for detection.

SMILES | plasma levels of triglycerides (HFD-fed C57BL6/J mice [1]) | plasma levels of free fatty acids (HFD-fed C57BL6/J mice [1]) | percent of cells showing significant outgrowth (>20 μm), increase vs differentiated cells (PC-12 cells) [%] | number of processes, increase (PC-12 cells) [%] | respiratory exchange ratio (RER) (HFD-fed C57BL6/J mice [2]) | energy expenditure (oxygen consumption, VO2) (HFD-fed C57BL6/J mice [2]) | percentage of lean mass (EchoMRI) [3] | percentage of fat mass (EchoMRI) [3] | levels of phosphorylation of AMPK (P-AMPK) [4]
O=C1O[C@H]2[C@@H]3OC(=O)c4cc(O)c(O)c(O)c4-c4c(O)c(O)c5oc(=O)c6c(c(O)c(O)c7oc(=O)c4c5c76)-c4c(cc(O)c(O)c4O)C(=O)OC[C@H]3OC(O)[C@@H]2OC(=O)c2cc(O)c(O)c(O)c2-c2c1cc(O)c(O)c2O (mixture of isomers) [punicalagin, 2,3 hexahydroxydiphenoyl-4,6-gallagylglucose] | statistically significant improvement | statistically significant improvement | > 26 | 26.3 | significantly decreased RER | increased energy expenditure |  |  | 
O=c1oc2c(O)c(O)cc3c(=O)oc4c(O)c(O)cc1c4c23 [ellagic acid] |  |  |  |  |  |  | statistically significant increase in the percentage of lean mass | reduction in fat mass | increased
O=c1oc2cc(O)ccc2c2ccc(O)cc12 [urolithin A, 3,8-Dihydroxydibenzo-α-pyrone] | statistically significant improvement | statistically significant improvement | 26 | 15.7 | significantly decreased RER | increased energy expenditure | statistically significant increase in the percentage of lean mass | reduction in fat mass | increased
